# Test results: patent US20260060960A1, “GAMMA-SECRETASE INHIBITORS FOR USE IN THE TREATMENT OF INHERITED EPIDERMOLYSIS BULLOSA” (OSPEDALE PEDIATRICO BAMBINO GESU', priority 2022, published 2026)
# Assays:
# Type in all cases: cell-based, human
# [1] = tested on: primary fibroblasts from RDEB patients (RDEB-FBs); assay: Collagen lattice contraction (CLC) assay; details: for cell contractility (collagen lattice contraction) / contractility (collagen lattice contraction): RDEB-FBs, 20 μM, 48 h; for contractility (collagen lattice contraction): presence of TGF-β1 2 ng/mL
# Protocol: RDEB-FBs (5×10^5 cells) were mixed in a collagen buffer and seeded into 12-well plates as previously described. After gelation, fibroblast-populated collagen lattices were detached from the wells and left floating. RDEB-FBs were treated with 20 μM of DAPT and PF-03804014 in DMEM containing 0.1% BSA, in the presence or absence of TGF-β1 at 2 ng/mL, as contraction booster. JAG1-silenced RDEB-FBs were embedded in collagen lattices 24 h after siRNA transfection. In both cases, images were acquired with ChemiDoc™ XRS+ System (Bio-Rad, Hercules, CA, USA) at the detachment of collagen lattices from the wells (time 0, TO) and after 48 h. Gel areas were measured by ImageJ software and photos at TO were used as references.
# [2] = tested on: primary fibroblasts from RDEB patients (RDEB-FBs); assay: MTT proliferation assay on RDEB fibroblasts; details: 20 μM
# Protocol: Proliferation rate was assessed by 3-(4,5-dimethyl-2-thiazolyl)-2,5-diphenyl-2H-tetrazolium bromide (MTT) assay, following the manufacturer's protocol. In brief, three different strains of RDEB-FBs were seeded at the density of 4×10^3 cells into 96-well plates. The day after, RDEB-FBs growing in DMEM containing 10% FBS were treated with 20 μM DAPT or PF-03084014 for 24 h or 48 h. Cells treated with the vehicle DMSO were used as controls. At the selected time points, medium was replaced with MTT solution and plates were incubated in a dry incubator at 37° C. for 3 h. Thereafter, cells were lysed in DMSO to dissolve formazan crystals and absorbance values were recorded at 560 nm with an Infinite F50 microplate reader (Tecan, Mannedorf, Switzerland). Values recorded 24 h after cell seeding, before GSI stimulation (TO) were used as reference.
# [3] = tested on: primary fibroblasts from RDEB patients (RDEB-FBs); assay: Oris cell migration assay; details: 24 h, vs non-treated cells
# Protocol: Migration rate was evaluated using an Oris™ Cell Migration Assay Kit (Platypus Technologies, Madison, WI, USA) following the manufacturer's instructions. Briefly, cells were seeded at high density (5×10^4 per well) onto 96-well plates containing medical-grade silicon stoppers that restrict cell seeding to an outer annular region of the well, and serum starved overnight. The day after, silicon stoppers were removed and cells were transfected. Analysis of cell migration into the detection zone was performed after Giemsa stain (Sigma-Aldrich). The detection zone was photographed with a Leica DMi8 microscope (Leica Microsystems, Wetzlar, Germany) at 0 h (premigration controls) and 24 h after stopper removal. ImageJ was used to calculate the percentage of cell-free area. The cell migration assay of RDEB-FBs and NH-FBs grown under basal conditions was performed following the same protocol.
# [4] = tested on: TGF-β1 secreted by RDEB-FBs; assay: TGF-β1 ELISA on conditioned media of RDEB fibroblasts; details: 20 μM, 48 h; for acid-activated TGF-β1 in conditioned media: three RDEB-FB strains, mean±SD
# Protocol: Human TGF-β1 Quantikine ELISA Kit (R&D Systems, Minneapolis, MN, USA) was used to measure the amount of TGF-β1 (pg/mL) in serum-free conditioned media of three RDEB-FB strains, treated or not with PF-03084014 and DAPT at 1 or 20 μM for 48 h. DMSO-treated cells were used as controls. TGF-β1 Quantikine ELISA Kit was performed as per manufacturer's instructions. Samples were assayed in duplicate for each experimental condition. In order to detect both the latent precursor and the active form without latency-associated peptide cell supernatants were subjected to acid activation prior to be analyzed. Absorbance values were recorded at 455 nm with an Infinite F50 microplate reader (Tecan, Männedorf, Switzerland) and analyzed by employing the GraphPad Prism 8.2 version (GraphPad Software Inc., San Diego, CA, USA).
# [5] = tested on: primary fibroblasts from RDEB patients (RDEB-FBs); assay: Type I collagen degradation assay; details: presence of TGF-β1, PF-03084014 5 μM, DAPT 20 μM
# Protocol: The ability of RDEB-FBs to degrade a thin film of type I collagen (COL1) was assessed as previously described. Briefly, COL1 from calf hides (Symatese, Chaponost, France), was diluted at a concentration of 375 μg/ml in 13 mM hydrochloric acid. Diluted COL1 solution was rapidly mixed on ice with one quarter-volume of a neutralizing phosphate buffer (20 ml of 0.2 M NaH2PO4 pH 7.5, 20 ml 0.1 M NaOH, 4.15 ml 5 M NaCl) and gently dispensed into 24-well plates. COL1 gelation was obtained maintaining COL1-coated plates at 37° C. for 2 h. COL1 gels were dehydrated overnight in a laminar flow hood, washed with sterile water and PBS containing Penicillin/Streptomycin. Then, a droplet of complete medium containing 12.500 RDEB-FBs was gently poured in the center of the well, and cells were allowed to adhere in a humidified chamber for 3 h. […] At the end of the incubation period, RDEB-FBs were detached by trypsin/EDTA and counted to be sure to evaluate collagenolytic activity of the same number of cells per condition. The residual COL1 film was stained for 15 min with a solution of Coomassie Brilliant Blue R-250 Dye (Thermo Fisher Scientific), the excess of stain was removed with a destain solution (30% ethanol, 7.5% CH3COOH). Images were acquired with a 10× objective.
# [6] = tested on: α-SMA, CNN1, TAGLN, JAG1, HES1, POSTN, Pri-miR-143/145 mRNA; assay: Real-time PCR of contractile/fibrotic markers in RDEB fibroblasts; details: RDEB-FBs
# Source text: Total was extracted by TRIzol (Thermo Fisher Scientific) by monolayer fibroblast cultures, following manufacturer's instructions. RNA was reverse transcribed and amplified by using Power SYBR Green RNA-to-Ct 1-Step Kit (Thermo Fisher Scientific) on QuantStudio™ 7 Pro Real-Time PCR System (Thermo Fisher Scientific). Primer pairs used in this study are listed in Table 2: ACTA2, actin alpha 2, smooth muscle; CNN1, calponin; COL1A1, collagen type I alpha 1 chain; GAPDH, glyceraldehyde-3-phosphate dehydrogenase; HES1, hes family bHLH transcription factor 1; JAG1, jagged canonical Notch ligand 1; NOTCH1, notch receptor 1; POSTN, periostin; TAGLN, transgelin.
# Relative mRNA expression levels were measured by the 2−ΔΔCT method. Hypoxanthine phosphoribosyltransferase 1 (HPRT1) was used as housekeeping gene to normalize mRNA expression levels.
Compound,cell contractility (collagen lattice contraction) ([1]; absence of TGF-β1),contractility (collagen lattice contraction) [1],cell proliferation (MTT) ([2]; 24 and 48 h),ability to migrate into the cell-free area [3],acid-activated TGF-β1 in conditioned media [4] [pg/mL],"contractile properties (collagen lattice contraction) in strain RDEB-FB1 ([1]; RDEB-FB1, 20 μM, absence of TGF-β1)","proliferation rate (MTT) ([2]; 48 h, vs untreated cells)",reduction of TGF-β1 released in culture media ([4]; vs cells treated with DMSO and DAPT),type I collagen degradation areas [5],"mRNA levels of HES1, periostin and Pri-miR-143/145 [6]",mRNA levels of contractile/fibrotic markers (real-time PCR) ([6]; basal conditions and presence of TGF-β1)
"C[C@H](NC(=O)Cc1cc(F)cc(F)c1)C(=O)N[C@H](C(=O)OC(C)(C)C)c1ccccc1 [DAPT, N—[N-(3,5-difluorophenacetyl)-L-alanyl]-S-phenylglycine t-butyl ester]",didn't exhibit significant variations,"significant, although less conspicuous",didn't display variations in cell proliferation,significant decrease of RDEB-FB ability to migrate,250.4 ± 97.3,–,–,–,–,–,–
"CCC[C@H](N[C@H]1CCc2cc(F)cc(F)c2C1)C(=O)Nc1cn(C(C)(C)CNCC(C)(C)C)cn1 [PF-03084014, (S)-2-((S)-5,7-difluoro-1,2,3,4-tetrahydronaphthalen-3-ylamino)-N-(1-(2-methyl-1-(neopentylamino)propan-2-yl)-1H-imidazol-4-yl)pentanamide]",modest but consistent in all RDEB-FB strains analyzed,marked reduction of contractility,–,significant decrease of RDEB-FB ability to migrate,99.6 ± 40.8,striking inhibition of contractile properties,statistically significant reduction of RDEB-FB proliferation rate,up to 60%,increased number and size of collagen degradation areas,context-dependent downregulation,"down-regulation of a selection of contractile/fibrotic markers, including α-SMA, CNN1, TAGLN and JAG1"
